Experimental data as given in patent US7846935B2, “Furo[3,2-B]pyrrol-3-one derivatives and their use as cysteinyl proteinase inhibitors” (Amura Therapeutics Limited, priority 2006, dated 2010).
Read-outs that look alike come from different tables or passages of the source.

What was measured:
human osteoclasts [1] = assay: Human osteoclast resorption assay; format: cell-based
Experimental: Bone resorption was studied using a model where human osteoclast precursor cells were cultured on bovine bone slices for 9 days and allowed to differentiate into bone-resorbing osteoclasts. The formed mature osteoclasts were then allowed to resorb bone. The assay was performed by Pharmatest Services Ltd, Itainen Pitkakatu 4C, Turku, Finland. After the culture period, bone collagen degradation products were quantified from the culture medium as an index of bone resorption. Inhibitor compounds were added into the cell cultures after the differentiation period and their effects on the resorbing activity of mature osteoclasts were determined. The studies included a baseline group without added compounds and a positive control group where a potent cathepsin K inhibitor E-64 was added.
Human peripheral blood monocytes were suspended to culture medium and allowed to attach to bovine bone slices. The bone slices were transferred into 96-well tissue culture plates containing culture medium with appropriate amounts of important growth factors favouring osteoclast differentiation, including M-CSF, RANK-ligand and TGF-β. The cells were incubated in a CO2 incubator in humidified atmosphere of 95% air and 5% carbon dioxide at 37° C. At day 7 when osteoclast differentiation was complete, the culture medium was replaced with culture medium containing conditions favouring osteoclast activity. The cell culture was continued for an additional 2 days, during which the formed mature osteoclasts were allowed to resorb bone in the presence of vehicle, control inhibitor (E64) or test compounds. At the end of the culture, bone collagen degradation products released into the culture medium were determined using a commercially available ELISA method (CrossLaps® for culture, Nordic Bioscience, Herlev, Denmark) as an index of bone resorption (see Bagger, Y. Z. et al, J. Bone. Miner. Res. 14 (suppl. 1), S370).

Plasma incubations = format: in vitro ADME; conditions: 37° C., 25 μM
Experimental: Aliquots were removed at 2 and 60 minutes and quenched with an equal volume of cold acetonitrile. After mixing vigorously, the precipitated protein matter was removed by filtration (Multiscreen Solvinert filter plates, Millipore, Bedford, Mass., USA) and the filtrate analysed by reverse phase HPLC with mass spectrometric detection, using single ion monitoring of the [M+H]^+ species. Metabolic turnover was determined by comparison of peak areas from the ion chromatograms of the parent compound at 2 and 60 minutes and expressed as percent remaining at 1 hour.

[2] = Liver microsomal incubations; format: in vitro ADME; conditions: human liver microsomes, 25 μM, NADPH
Experimental: All liver microsome incubations were carried out in 50 mM potassium phosphate buffer at pH 7.4, with a final microsomal protein concentration of 0.5 mg/mL. […] In brief, compounds were added to the incubation buffer along with the liver microsomes and incubated at 37° C. for 10 minutes. The reaction was then initiated by the addition of NADPH, previously dissolved in incubation buffer, to give a final concentration of 1 mM and re-incubated at 37° C. Aliquots were removed at 2 and 60 minutes and quenched with an equal volume of cold acetonitrile. After mixing vigorously, the precipitated protein matter was removed by filtration (Multiscreen Solvinert filter plates, Millipore, Bedford, Mass., USA) and the filtrate analysed by reverse phase HPLC with mass spectrometric detection, using single ion monitoring of the [M+H]^+ species. Metabolic turnover was determined by comparison of peak areas from the ion chromatograms of the parent compound at 2 and 60 minutes and expressed as percent remaining at 1 hour.

rat osteoclasts = assay: Rat osteoclast resorption assay; format: cell-based
Experimental: Bone resorption was studied using a model where mature osteoclasts derived from rat bone were cultured on bovine bone slices for 3 days and allowed to resorb bone in the presence of inhibitor, positive control (E-64) or vehicle. More specifically, tibia, femori and humeri were removed from 1 day old rat pups. The endosteal surfaces of the bones were scraped with a scapelto release osteoclasts into the culture medium and the osteoclasts were allowed to attach to bovine bone slices. After the culture period, bone collagen degradation products were quantified from the culture medium as an index of bone resorption. The assay was performed by Pharmatest Services Ltd, Itäinen Pitkakatu 4C, Turku, Finland.

[3] = target: T1, Human recombinant cathepsin K (Homo sapiens, UniProt P43235); assay: In vitro cathepsin Ki inhibition measurements; format: biochemical; conditions: Table 1, read-out: In vitro Ki (nM) vs Cath K
T1 construct: B. Turk, Josef, Stefan Institute, Ljubljana, Slovenia
T1 sequence (P43235 115-329): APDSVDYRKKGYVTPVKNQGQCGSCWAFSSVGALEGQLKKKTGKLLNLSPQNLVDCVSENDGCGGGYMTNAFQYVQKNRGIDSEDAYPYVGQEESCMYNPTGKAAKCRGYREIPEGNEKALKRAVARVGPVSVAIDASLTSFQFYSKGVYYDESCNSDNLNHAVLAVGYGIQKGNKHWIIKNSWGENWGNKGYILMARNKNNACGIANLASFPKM
Experimental: Stock solutions of substrate or inhibitor were made up to 10 mM in 100% dimethylsulfoxide (DMSO) (Rathburns, Glasgow, U.K.) and diluted as appropriately required. In all cases the DMSO concentration in the assays was maintained at less than 1% (vol./vol.). The equilibrium inhibition constants (Ki^ss) for each compound were measured under steady-state conditions monitoring enzyme activity as a function of inhibitor concentration. The values were calculated on the assumption of pure competitive behaviour (Cornish-Bowden, A. Fundamentals of enzyme kinetics Portland Press; 1995, 93-128). Human recombinant cathepsin K (0.25 nM final; B. Turk, Josef, Stefan Institute, Ljubljana, Slovenia), was routinely assayed in 100 mM sodium acetate; pH 5.5 containing 1 mM EDTA, 10 mM L-cysteine and 1.8 μM Z-Leu-Arg-AMC ([S]=KM).
The apparent inhibition constant (Ki) for each compound was determined on the basis that inhibition was reversible and occurred by a pure-competitive mechanism. The Ki values were calculated, from the dependence of enzyme activity as a function of inhibitor concentration, by direct regression analysis (Prism v 3.02) using Equation 2 (Cornish-Bowden, A., 1995).
In situations where the apparent dissociation constant (Ki^app) approached the enzyme concentrations, the Ki^app values were calculated using a quadratic solution in the form described by Equation 3 (Morrison, J. F. Trends Biochem. Sci., 7, 102-105, 1982; Morrison, J. F. Biochim. Biophys. Acta, 185, 269-286, 1969; Stone, S. R. and Hofsteenge, J. Biochemistry, 25, 4622-4628, 1986).
Curves were fitted by non-linear regression analysis (Prism) using a fixed value for the enzyme concentration. Equation 4 was used to account for the substrate kinetics, where ‘Ki’ is the inhibition constant, ‘[So]’ is the initial substrate concentration and ‘KM^app’ is the apparent macroscopic binding (Michaelis) constant for the substrate (Morrison, 1982).

LogD determinations = format: physicochemical; conditions: 1-octanol/PBS; PBS pH 7.4/1-octanol, ion-count method
Experimental: LogD(PBS) determinations were performed in 96 well microtitre plates using a miniaturised “shake-flask” method. […] The plates were then capped and mixed vigorously for 1 hour on a microtitre plate shaker, after which they were left to stand, allowing the PBS and octanol phases to separate. The PBS layer was analysed by reverse phase HPLC with mass spectrometric detection, using single ion monitoring of the [M+H]^+ species.
Where AUCstd and AUCpbs are the peak areas from the standard and test ion chromatograms respectively.

human osteoclasts [4] = conditions: human osteoclast, literature value; cited from earlier work
[5] = human osteoclast bone resorption, read-out: Cell-based % Inh. @ 1 μM Human
[6] = human osteoclast, read-out: inhibition of human osteoclast activity
[7] = 1 μM, rat osteoclast bone resorption, read-out: Cell-based % Inh. @ 1 μM Rat
[8] = rat osteoclast, 1 μM per table 1, read-out: rat osteoclast data (inhibition)

CC(C)C[C@H](NC(=O)c1ccc(N2CCN(C)CC2)cc1)C(=O)N1CC[C@H]2OCC(=O)[C@H]21 [EXAMPLE 1, 4-(4-methylpiperazin-1-yl)-N—((S)-4-methyl-1-oxo-1-((3aS,6aR)-3-oxodihydro-2H-furo[3,2-b]pyrrol-4(5H,6H,6aH)-yl)pentan-2-yl)benzamide, reference compound]
inhibition at 1 µM (human osteoclasts [1]; [5]): 55%
Human Plasma Stability % rem. @ 1 h (Plasma incubations): 95%
HLM % rem. @ 1 h [2]: 95%

CCN1CCN(c2ccc(C(=O)N[C@@H](CC(C)C)C(=O)N3CC[C@H]4OCC(=O)[C@H]43)cc2)CC1 [EXAMPLE 2, 4-(4-ethylpiperazin-1-yl)-N—((S)-4-methyl-1-oxo-1-((3aS,6aR)-3-oxodihydro-2H-furo[3,2-b]pyrrol-4(5H,6H,6aH)-yl)pentan-2-yl)benzamide]
inhibition at 1 µM (human osteoclasts [1]; [5]): 58%
inhibition at 1 µM (human osteoclasts [1]; [6]): 58%
inhibition at 1 µM (rat osteoclasts; [7]): 40%
Human Plasma Stability % rem. @ 1 h (Plasma incubations): 93%
Ki [3]: 15 nM
logD (LogD determinations): 0.74
HLM % rem. @ 1 h [2]: 88%

CCCN1CCN(c2ccc(C(=O)N[C@@H](CC(C)C)C(=O)N3CC[C@H]4OCC(=O)[C@H]43)cc2)CC1 [EXAMPLE 3, N—((S)-4-methyl-1-oxo-1-((3aS,6aR)-3-oxo-dihydro-2H-furo[3,2-b]pyrrol-4(5H,6H,6aH)-yl)pentan-2-yl)-4-(4-propylpiperazin-1-yl)benzamide]
inhibition at 1 µM (human osteoclasts [1]; [5]): 73%
inhibition at 1 µM (human osteoclasts [1]; [6]): 73 to 82%
inhibition at 1 µM (rat osteoclasts; [7]): 65%
inhibition at 1 µM (rat osteoclasts; [8]): 65%
Human Plasma Stability % rem. @ 1 h (Plasma incubations): 89%
Ki [3]: 18 nM
logD (LogD determinations): 1.66
HLM % rem. @ 1 h [2]: 83%

CC(C)C[C@H](NC(=O)c1ccc(N2CCN(C(C)C)CC2)cc1)C(=O)N1CC[C@H]2OCC(=O)[C@H]21 [EXAMPLE 4, 4-(4-isopropylpiperazin-1-yl)-N—((S)-4-methyl-1-oxo-1-((3aS,6aR)-3-oxodihydro-2H-furo[3,2-b]pyrrol-4(5H,6H,6aH)-yl)pentan-2-yl)benzamide]
inhibition at 1 µM (human osteoclasts [1]; [5]): 74%
inhibition at 1 µM (human osteoclasts [1]; [6]): 73 to 82%
inhibition at 1 µM (rat osteoclasts; [7]): 25%
inhibition at 1 µM (rat osteoclasts; [8]): 25%
Human Plasma Stability % rem. @ 1 h (Plasma incubations): 91%
Ki [3]: 19 nM
logD (LogD determinations): 1.21
HLM % rem. @ 1 h [2]: 88%

COCCN1CCN(c2ccc(C(=O)N[C@@H](CC(C)C)C(=O)N3CC[C@H]4OCC(=O)[C@H]43)cc2)CC1 [EXAMPLE 5, 4-(4-(2-methoxyethyl)piperazin-1-yl)-N—((S)-4-methyl-1-oxo-1-((3aS,6aR)-3-oxodihydro-2H-furo[3,2-b]pyrrol-4(5H,6H,6aH)-yl)pentan-2-yl)benzamide]
inhibition at 1 µM (human osteoclasts [1]; [5]): 57%
inhibition at 1 µM (human osteoclasts [1]; [6]): 57%
inhibition at 1 µM (rat osteoclasts; [7]): 65%
inhibition at 1 µM (rat osteoclasts; [8]): 65%
Human Plasma Stability % rem. @ 1 h (Plasma incubations): 98%
Ki [3]: 29 nM
logD (LogD determinations): 0.9
HLM % rem. @ 1 h [2]: 90%

CC(C)C[C@H](NC(=O)c1ccc(N2CCN(C3CC3)CC2)cc1)C(=O)N1CC[C@H]2OCC(=O)[C@H]21 [EXAMPLE 6, 4-(4-cyclopropylpiperazin-1-yl)-N—((S)-4-methyl-1-oxo-1-((3aS,6aR)-3-oxodihydro-2H-furo[3,2-b]pyrrol-4(5H,6H,6aH)-yl)pentan-2-yl)benzamide]
inhibition at 1 µM (human osteoclasts [1]; [5]): 74%
inhibition at 1 µM (human osteoclasts [1]; [6]): 73 to 82%
inhibition at 1 µM (rat osteoclasts; [7]): 22%
inhibition at 1 µM (rat osteoclasts; [8]): 22%
Human Plasma Stability % rem. @ 1 h (Plasma incubations): 93%
Ki [3]: 4 nM
logD (LogD determinations): 1.88
HLM % rem. @ 1 h [2]: 83%

CC(C)C[C@H](NC(=O)c1ccc(N2CCN(C3CCC3)CC2)cc1)C(=O)N1CC[C@H]2OCC(=O)[C@H]21 [EXAMPLE 7, 4-(1-cyclobutylpiperazin-4-yl)-N—((S)-4-methyl-1-oxo-1-((3aS,6aR)-3-oxodihydro-2H-furo[3,2-b]pyrrol-4(5H,6H,6aH)-yl)pentan-2-yl)benzamide]
inhibition at 1 µM (human osteoclasts [1]; [5]): 82%
inhibition at 1 µM (human osteoclasts [1]; [6]): 73 to 82%
inhibition at 1 µM (rat osteoclasts; [7]): 40%
inhibition at 1 µM (rat osteoclasts; [8]): 40%
Human Plasma Stability % rem. @ 1 h (Plasma incubations): 92%
Ki [3]: 3 nM
logD (LogD determinations): 1.88
HLM % rem. @ 1 h [2]: 81%

COCCN1CCC(c2ccc(C(=O)N[C@@H](CC(C)C)C(=O)N3CC[C@H]4OCC(=O)[C@H]43)cc2)CC1 [EXAMPLE 8, 4-(1-(2-methoxyethyl)piperidin-4-yl)-N—((S)-4-methyl-1-oxo-1-((3aS,6aR)-3-oxodihydro-2H-furo[3,2-b]pyrrol-4(5H,6H,6aH)-yl)pentan-2-yl)benzamide]
inhibition at 1 µM (human osteoclasts [1]; [5]): 23%
inhibition at 1 µM (human osteoclasts [1]; [6]): 23%
inhibition at 1 µM (rat osteoclasts; [7]): 52%
inhibition at 1 µM (rat osteoclasts; [8]): 52%
Human Plasma Stability % rem. @ 1 h (Plasma incubations): 98%
Ki [3]: 36 nM
logD (LogD determinations): 0.61
HLM % rem. @ 1 h [2]: 88%

CC(C)C[C@H](NC(=O)c1ccc(C2CCN(C3CC3)CC2)cc1)C(=O)N1CC[C@H]2OCC(=O)[C@H]21 [compound 9, 4-(1-cyclopropylpiperidin-4-yl)-N—((S)-4-methyl-1-oxo-1-((3aS,6aR)-3-oxodihydro-2H-furo[3,2-b]pyrrol-4(5H,6H,6aH)-yl)pentan-2-yl)benzamide]
Human Plasma Stability % rem. @ 1 h (Plasma incubations): 93%
Ki [3]: 8 nM
logD (LogD determinations): 1.99
HLM % rem. @ 1 h [2]: 82%

CC(C)C[C@H](NC(=O)c1ccc(C2CCN(C3CCC3)CC2)cc1)C(=O)N1CC[C@H]2OCC(=O)[C@H]21 [compound 10, 4-(1-cyclobutylpiperidin-4-yl)-N—((S)-4-methyl-1-oxo-1-((3aS,6aR)-3-oxodihydro-2H-furo[3,2-b]pyrrol-4(5H,6H,6aH)-yl)pentan-2-yl)benzamide]
Human Plasma Stability % rem. @ 1 h (Plasma incubations): 90%
Ki [3]: 5 nM
logD (LogD determinations): 0.95
HLM % rem. @ 1 h [2]: 83%

CC(C)C[C@H](NC(=O)c1ccc(C(C)(C)C)cc1)C(=O)N1CC[C@H]2OCC(=O)[C@H]21 [prior art compound 23, reference compound]
Human Plasma Stability % rem. @ 1 h (Plasma incubations): 75%
Cell-based % Inh. @ 1 μM Human (Lit.) (human osteoclasts [4]): Lit. 60%
HLM % rem. @ 1 h [2]: 70%
